Reference: US10723764B2, “Anti-microbial peptides and methods of use thereof” (priority 2011, dated 2020)
Like-named read-outs stand apart in the source and are kept apart here. Marks after values point to notes of the source that are not given here. Where a SMILES comes first, the peptide text is derived from it. Where no end group is shown, it is not given here. [ ]: non-standard residue; d: D form.

What was measured:
Gram-positive bacteria = tested on: Gram-positive bacteria; design: key: Y, Yes; N, No; conditions: data from the APD; cited from earlier work
Gram-negative bacteria = tested on: Gram-negative bacteria; design: key: Y, Yes; N, No; conditions: data from the APD; cited from earlier work
human erythrocytes = conditions: human red blood cells; Table 6
Description: Peptide hemolysis was assayed using an established protocol (Malmsten et al. (2011) PLoS One 6:e16400). In brief, fresh blood, obtained from the UNMC Blood Bank, was washed three times with PBS buffer and made into a 5% solution. To 90 μL of this solution, 10 μL of a peptide solution was added and incubated at 37° C. for one hour. After centrifugation at 13,000 rpm, aliquots of the supernatant were transferred to a fresh 96 well microplate. The absorbance of the solutions was measured at 545 nm to detect the amount of hemoglobin released. The percent lysis was calculated by assuming 100% release when treated with 2% Triton X-100 and no lysis (0%) when treated with PBS buffer. HL50 was the peptide concentration that caused 50% lysis of human erythrocytes. The cell selectivity (CS) indexes were calculated as the ratio of HL50 to the MIC of the peptide against S. aureus USA300.
The hemolytic effects of the six peptides were also compared on human red blood cells (hRBC) using an established protocol (Malmsten et al. (2011) PLoS One 6:e16400). […] A high TI indicates good cell selectivity.
Peptide hemolysis was assayed using an established protocol (Menousek et al. (2012) Int. J. Antimicrob. Agents 39:402-406; Malmsten et al. (2011) PLoS One 6:e16400). Briefly, blood cells were washed three times with phosphate-buffered saline (PBS) and were diluted to a 5% solution. Following peptide treatment, incubation at 37° C. for 1 hour and centrifugation at 13,000 rpm, aliquots of the supernatant were transferred to a fresh 96-well microplate. To assess peptide cytotoxicity, the amount of hemoglobin released was measured at 545 nm. Percent lysis was calculated by assuming 100% release when human blood cells were treated with 2% Triton X-100 and 0% release when they were incubated with PBS buffer.

chymotrypsin = chymotrypsin (Bos taurus, UniProt P00766)
Description: One of the hurdles in developing peptide-based antimicrobials is peptide stability to protease (Wang, G. (2010) Antimicrobial Peptides: Discovery, Design and Novel Therapeutic Strategies, CABI, England). […] This was done by modifying the standard microdilution antimicrobial assays (Wang, G. (2008) J. Biol. Chem., 283:32637-32643). Specifically, the bacterial wells with a high peptide concentration (e.g. 100 μM) are duplicated (e.g., two for antimicrobial assays and two for protease stability assays). As an illustration, chymotrypsin was applied to the duplicated wells at a peptide:protease molar ratio of 25:1. Numerous peptides were screened in this manner.
To identify protease-resistant peptide templates, 30 synthetic peptides were screened (Table 9; Wang et al. (2008) Antimicrob. Agents Chemother., 52:3438-3440). A standard microdilution assay protocol (Li et al. (2006) J. Am. Chem. Soc., 128:5776-5785) was modified to include proteases into the duplicated wells with high concentrations of peptide so that both antimicrobial activity and protease stability could be evaluated simultaneously. […] (peptide:protease molar ratio of 40:1).

[1] = tested on: methicillin-resistant Staphylococcus aureus USA300 LAC; conditions: S. aureus USA300; Table 5 screen
Escherichia coli K12 = conditions: E. coli K12; Table 5 screen
[2] = antimicrobial assay with chymotrypsin, peptide:protease molar ratio 40:1, E. coli K12 for peptides inactive against S. aureus
[3] = E. coli K12 growth with chymotrypsin, peptide:protease molar ratio 25:1

## Temporin L: temporin, APD ID 99, SEQ ID NO: 11 (FVQWFSKFLGRIL; listed as Rana temporaria)
Gram-positive bacteria
  Activity G+ (activity against Gram-positive bacteria): Y/Y
Gram-negative bacteria
  Activity G− (activity against Gram-negative bacteria): Y/Y

## Temporin-SHf: temporin, APD ID 1534, SEQ ID NO: 10 (FFFLSRIF; listed as Pelophylax saharicus)
Gram-positive bacteria
  Activity G+ (activity against Gram-positive bacteria): Y/Y
Gram-negative bacteria
  Activity G− (activity against Gram-negative bacteria): Y/Y

## IKWKKLLRAAKRIL-NH2 [DASamP2]
Human erythrocytes
  HL50 (μM), concentration at which 50% red blood cells are lysed: 75 µM

## EKIGKEFKRIVQRIKDFLRN [EK-20]
chymotrypsin; [2]
  Stability (to chymotrypsin): −

## Temporin B: temporin, APD ID 95, SEQ ID NO: 19 (LLPIVGNLLKSLL; listed as Rana temporaria)
Gram-positive bacteria
  Activity G+ (activity against Gram-positive bacteria): Y
Gram-negative bacteria
  Activity G− (activity against Gram-negative bacteria): N

## HVDKKVADKVLLLKQLRIMRLLTRL [Spinigerin, reference compound]
[1]
  MICs (μM) SA: >81 µM
Escherichia coli K12
  MICs (μM) EC: >81 µM

## Temporin K: temporin, APD ID 100, SEQ ID NO: 20 (LLPNLLKSLL; listed as Rana temporaria)
Gram-positive bacteria
  Activity G+ (activity against Gram-positive bacteria): Y
Gram-negative bacteria
  Activity G− (activity against Gram-negative bacteria): N

## CC[C@@H](C)[C@@H](NC(=O)[C@H](CCCNC(=N)N)NC(=O)[C@H](CCC(N)=O)NC(=O)[C@@H](NC(=O)[C@H](NC(=O)[C@H](CCCNC(=N)N)NC(=O)[C@H](CCCCN)NC(=O)[C@H](Cc1ccccc1)NC(=O)CN)[C@H](C)CC)C(C)C)C(=O)N[C@@H](CCCCN)C(=O)N[C@@H](CC(=O)O)C(=O)N[C@@H](Cc1ccccc1)C(=O)N[C@H](CC(C)C)C(=O)N[C@@H](CCCNC(=N)N)C(=O)N[C@@H](CC(N)=O)C(=O)N[C@@H](CC(C)C)C(=O)N[C@H](C(N)=O)C(C)C [GF-17d3] (H-GFKR[dI]VQR[dI]KDF[dL]RNLV-NH2; N-terminus assumed)
chymotrypsin; [3]
  Stability (to chymotrypsin): +
chymotrypsin; [2]
  Stability (to chymotrypsin): +^c

## GFLSILKKVLPKVMAHMK-NH2 [Melectin, reference compound]
[1]
  MICs (μM) SA: 12.5 to 25 µM
Escherichia coli K12
  MICs (μM) EC: 12.5 to 25 µM

## Temporin A: temporin, APD ID 94, SEQ ID NO: 14 (FLPLIGRVLSGIL; listed as Rana temporaria)
Gram-positive bacteria
  Activity G+ (activity against Gram-positive bacteria): Y
Gram-negative bacteria
  Activity G− (activity against Gram-negative bacteria): N

## Temporin H: temporin, APD ID 859, SEQ ID NO: 17 (LSPNLLKSLL; listed as Rana temporaria)
Gram-positive bacteria
  Activity G+ (activity against Gram-positive bacteria): Y
Gram-negative bacteria
  Activity G− (activity against Gram-negative bacteria): N

## RPKHPIKHQGLPQEVLNENLLRF [Isracidin, reference compound]
[1]
  MICs (μM) SA: >100 µM
Escherichia coli K12
  MICs (μM) EC: >100 µM

## GRFKRFRKKFKKLFKKLS-NH2 [BMAP-18]
chymotrypsin; [2]
  Stability (to chymotrypsin): −

## GFKRIVQRIKDFLRNLV-NH2 [GF-17]
chymotrypsin; [3]
  Stability (to chymotrypsin): −
chymotrypsin; [2]
  Stability (to chymotrypsin): −

## FFGKVLKLIRKIF-NH2 [DASamP1]
Human erythrocytes
  HL50 (μM), concentration at which 50% red blood cells are lysed: 25 µM

## FKRIVQRIKDFLRNLVPRTE [FK-21]
chymotrypsin; [2]
  Stability (to chymotrypsin): −

## RQRVEELSKFSKKGAAARRRK [Misgurin, reference compound]
[1]
  MICs (μM) SA: >84 µM
Escherichia coli K12
  MICs (μM) EC: >84 µM

## Temporin G: temporin, APD ID 101, SEQ ID NO: 12 (FFPVIGRILNGIL; listed as Rana temporaria)
Gram-positive bacteria
  Activity G+ (activity against Gram-positive bacteria): Y/Y
Gram-negative bacteria
  Activity G− (activity against Gram-negative bacteria): Y/Y

## IWLTALKFLGKHAAKHLAKQQLSKL [Lycotoxin I, reference compound]
Human erythrocytes
  HL50 (μM), concentration at which 50% red blood cells are lysed: 125 µM

## Temporin E: temporin, APD ID 97, SEQ ID NO: 16 (VLPIIGNLLNSLL; listed as Rana temporaria)
Gram-positive bacteria
  Activity G+ (activity against Gram-positive bacteria): Y
Gram-negative bacteria
  Activity G− (activity against Gram-negative bacteria): N

## GNNRPVYIPQPRPPHPRI [Apidaecin IA, reference compound]
[1]
  MICs (μM) SA: >100 µM
Escherichia coli K12
  MICs (μM) EC: >100 µM

## GKEFKRIVQRIKDFLRNLVPR [GK-21]
chymotrypsin; [3]
  Stability (to chymotrypsin): −
chymotrypsin; [2]
  Stability (to chymotrypsin): −

## Temporin-1Lb: temporin, APD ID 110, SEQ ID NO: 13 (NFLGTLINLAKKIM; listed as Rana luteiventris)
Gram-positive bacteria
  Activity G+ (activity against Gram-positive bacteria): Y
Gram-negative bacteria
  Activity G− (activity against Gram-negative bacteria): N

## GFKRIVQRIKDFLRNL-NH2 [GF-16]
chymotrypsin; [2]
  Stability (to chymotrypsin): −

## Temporin F: temporin, APD ID 98, SEQ ID NO: 15 (FLPLIGKVLSGIL; listed as Rana temporaria)
Gram-positive bacteria
  Activity G+ (activity against Gram-positive bacteria): Y/Y
Gram-negative bacteria
  Activity G− (activity against Gram-negative bacteria): Y/Y

## GFKDLLKGAAKALVKTVLF-NH2 [Ascaphin-8, reference compound]
Human erythrocytes
  HL50 (μM), concentration at which 50% red blood cells are lysed: 45 µM

## FFHHIFRGIVHVGKTIHRLVTG [Piscidin 1, reference compound]
Human erythrocytes
  HL50 (μM), concentration at which 50% red blood cells are lysed: 20 µM

## Temporin C: temporin, APD ID 96, SEQ ID NO: 21 (LLPILGNLLNGLL; listed as Rana temporaria)
Gram-positive bacteria
  Activity G+ (activity against Gram-positive bacteria): Y
Gram-negative bacteria
  Activity G− (activity against Gram-negative bacteria): N

## KIGKEFKRIVQRIKDFLRNLVP [KI-22]
chymotrypsin; [3]
  Stability (to chymotrypsin): −
chymotrypsin; [2]
  Stability (to chymotrypsin): −

## GLLGLLGSVVSHVVPAIVGHF-NH2 [Maculatin 1.3, reference compound]
Human erythrocytes
  HL50 (μM), concentration at which 50% red blood cells are lysed: 25 µM

## GKPRPYSPRPTSHPRPIRV [Drosocin, reference compound]
[1]
  MICs (μM) SA: >100 µM
Escherichia coli K12
  MICs (μM) EC: >100 µM
